This is an account of results in PMC2442655, “Structure-Activity Relationship and Substrate-Dependent Phenomena in Effects of Ginsenosides on Activities of Drug-Metabolizing P450 Enzymes” (PLoS ONE, 2008).

The structures appear in SMILES notation. Like-named read-outs stand apart in the source and are kept apart here. Some results are limits rather than exact numbers.

One data set has as its target T1, CYP1A2 (Homo sapiens, UniProt P05177).
T1 sequence (P05177 1-516): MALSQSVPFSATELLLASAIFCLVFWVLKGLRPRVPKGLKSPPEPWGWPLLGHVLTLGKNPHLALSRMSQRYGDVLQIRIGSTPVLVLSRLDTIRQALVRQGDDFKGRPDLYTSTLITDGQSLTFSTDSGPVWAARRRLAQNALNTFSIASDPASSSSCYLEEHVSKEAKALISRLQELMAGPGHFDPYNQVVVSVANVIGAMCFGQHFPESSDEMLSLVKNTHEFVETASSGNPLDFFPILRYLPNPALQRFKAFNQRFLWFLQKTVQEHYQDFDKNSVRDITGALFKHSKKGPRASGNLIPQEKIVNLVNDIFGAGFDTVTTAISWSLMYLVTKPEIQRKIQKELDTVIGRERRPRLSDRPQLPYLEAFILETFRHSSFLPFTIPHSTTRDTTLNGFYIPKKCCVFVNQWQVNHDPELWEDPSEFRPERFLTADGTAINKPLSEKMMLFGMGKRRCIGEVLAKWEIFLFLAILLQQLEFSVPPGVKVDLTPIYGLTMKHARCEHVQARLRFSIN
In words: Vivid CYP1A2 blue fluorescent assay. The conditions noted are these: for IC50: IC50 CYP1A2 blue, cDNA-expressed enzyme, Vivid blue substrate 3 µM; for inhibition at 30 min, 50 µM: human. As for the experimental part:
(§1) The inhibition of the catalytic activities of cDNA-expressed human P450 enzymes by ginsenosides was determined using Vivid® P450 screening kits (CYP1A2 blue, CYP2C9 red, CYP2C19 blue, CYP2D6 blue, CYP3A4 green and red) according to the manufacturer's instructions (Invitrogen Corporation; Carlsbad, CA, USA).
(§2) In brief, the assays were carried out in Costar® black-wall 96-well plates with ultra thin clear bottoms (Corning Inc, Corning, NY, USA) in a kinetic assay mode. Stock solutions (10 mM) of ginsenosides in methanol were prepared and diluted to various concentrations (2.5× 100, 50, 10, 5, 1 µM). For each well, 40 µL of solution of test compounds or vehicle was incubated with 50 µL pre-mixture (mixture of BACULOSOMES® reagent, regeneration system and reaction buffer) at 37°C for 20 min. The reaction was initiated by adding 10 µL of a mixture of substrate and NADP^+ per well with a respective concentration of Vivid® substrate (Table 1). The plate was read immediately for fluorescence changes every 0.5 min at 37°C for 30 min using a FlexStation II384 fluorometric plate reader (Molecular Devices, Sunnyvale, CA, USA) with respective excitation and emission wavelengths for each P450 enzyme (Table 1). The final methanol volume in the reaction was less than or equal to 1%.

In the next data set the target is T2, CYP2C9 (Homo sapiens, UniProt P11712).
T2 construct: purchased Invitrogen Corporation
The data set can be described thus: Vivid CYP2C9 red fluorescent assay. Format: in vitro ADME.

Data set [1] addresses T3, CYP3A4 (Homo sapiens, UniProt P08684). In words: Carbamazepine 10,11-epoxidation in human liver microsomes. To be noted: for Effect on in vitro CBZ metabolism: 1-50 µM. As for the experimental part:
(§3) The effects of the ginsenosides and sapogenins on the in vitro metabolism of CBZ were evaluated using HLM. […] Vehicle control samples were treated with methanol at a final concentration of 0.5% instead of test compounds. The reaction was initiated by adding 60 µL pre-warmed NADPH-regenerating system (50 µL BD solution A and 10 µL BD solution B). After incubation at 37°C for 30 min, the reaction system was quenched by adding 0.4 ml ice-cold acetonitrile, which was mixed well and centrifuged at 4°C (10,000 g, 10 min). The supernatant (0.4 ml) was collected, mixed with 0.8 ml acetonitrile and then centrifuged at 4°C (10,000 g, 10 min). The supernatant (30 µL) was diluted with 970 µL ddH2O and 50 µL of the mixture was injected onto the high performance liquid chromatography/tandem mass spectrometry (HPLC-MS-MS) system for analysis. […] Microsomal studies using NF as the substrate were conducted as described above for CBZ with several modifications. The NF concentration was 1 µM. The supernatant (0.4 ml) of the reaction system after quenching and centrifugation was also combined with 0.8 ml acetonitrile and centrifuged, and 10 µL of the resultant supernatant was directly injected onto the HPLC-MS-MS system for analysis.
(§4) The HPLC was performed using an Agilent 1200 system (Palo Alto, CA, USA) equipped with a binary pump and an auto-sampler. […] The elution lasted for 8 min.
(§5) The MS analysis was performed on a 4000Q Trap™ triple quadrupole mass spectrometer (Applied Biosystems/MDS Sciex Instruments, Concord, Ontario, Canada) equipped with a Turbo V ion source (TurboIonSpray™ probe was used), a Dell™ computer, and Analyst™ software. Electrospray ionization in the positive mode was employed to analyze CBZ-E and ONF, respectively. The compound parameters for CBZ-E and ONF were: declustering potential, 65 and 95 units, and collision energy, 39 and 40 units, respectively. The ion source parameters were as follows: curtain gas, 15 units; collision gas, medium; ion spray voltage, 4000 and 5000 V, respectively; temperature, 650 and 350°C, respectively; ion source gas 1, 60.0 and 65.0 units, respectively; ion source gas 2, 45.0 units.
A general note: Liver microsomes are vesicles of endoplasmic reticulum, rich in cytochrome P450 enzymes.

Data set [2] concerns the target T3, CYP3A4. The data set can be described thus: Vivid CYP3A4 green fluorescent assay. As for the experimental part: as §1, §2
A further data set deals with CYP2D6 (Homo sapiens, UniProt P10635). The data set can be described thus: Vivid CYP2D6 blue fluorescent assay. The conditions noted are these: for inhibition at 30 min, 50 µM: human. How it is done:
as §1, §2

For a further data set, the target named is CYP2C19 (Homo sapiens, UniProt P33261). The data set can be described thus: Vivid CYP2C19 blue fluorescent assay. How it is done:
as §1, §2

In data set [3] the target is T3, CYP3A4. In words: Vivid CYP3A4 red fluorescent assay. The conditions noted are these: for Effect on CYP3A4 catalytic activity, Vivid red assay: red substrate. As for the experimental part: as §1, §2
In data set [4] the target is T3, CYP3A4. In words: Nifedipine oxidation in human liver microsomes. The conditions noted are these: for Effect on NF metabolism: 1-50 µM; for Effect on NF in vitro metabolism: low concentrations (1∼10 µM). How it is done:
as §3, §4, §5

Data set [5] relates to CYP3A4. Also noted: method as in PMID 15133536. The conditions noted are these: read-out: IC50 CYP3A4-mediated testosterone 6β-hydroxylation; cited from earlier work.
The mark [6] stands for this setting: recombinant (cDNA-expressed) CYP1A2 BACULOSOMES, probe Vivid blue substrate 3 µM.
Setting [7] is: cDNA-expressed enzyme, Vivid red substrate 2 µM, maximum concentration 50 µM, read-out: IC50 CYP2C9 red.
Setting [8] is: recombinant (cDNA-expressed) CYP2D6 BACULOSOMES, probe Vivid blue substrate 10 µM.

CYP2D6, sequence (P10635 whole entry): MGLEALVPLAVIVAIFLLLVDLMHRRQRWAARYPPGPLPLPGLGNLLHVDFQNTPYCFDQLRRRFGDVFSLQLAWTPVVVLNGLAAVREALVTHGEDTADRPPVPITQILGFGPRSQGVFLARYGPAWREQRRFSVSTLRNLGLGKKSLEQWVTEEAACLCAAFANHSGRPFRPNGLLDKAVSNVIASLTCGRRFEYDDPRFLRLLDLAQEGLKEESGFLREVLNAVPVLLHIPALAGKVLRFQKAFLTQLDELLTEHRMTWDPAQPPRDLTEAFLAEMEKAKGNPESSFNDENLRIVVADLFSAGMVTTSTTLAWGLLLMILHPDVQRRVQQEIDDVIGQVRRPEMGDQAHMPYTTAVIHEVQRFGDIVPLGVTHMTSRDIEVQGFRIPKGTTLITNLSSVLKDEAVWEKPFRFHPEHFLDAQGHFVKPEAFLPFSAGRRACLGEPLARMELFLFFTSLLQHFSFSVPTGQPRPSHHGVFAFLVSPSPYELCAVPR
T2 sequence (P11712 whole entry): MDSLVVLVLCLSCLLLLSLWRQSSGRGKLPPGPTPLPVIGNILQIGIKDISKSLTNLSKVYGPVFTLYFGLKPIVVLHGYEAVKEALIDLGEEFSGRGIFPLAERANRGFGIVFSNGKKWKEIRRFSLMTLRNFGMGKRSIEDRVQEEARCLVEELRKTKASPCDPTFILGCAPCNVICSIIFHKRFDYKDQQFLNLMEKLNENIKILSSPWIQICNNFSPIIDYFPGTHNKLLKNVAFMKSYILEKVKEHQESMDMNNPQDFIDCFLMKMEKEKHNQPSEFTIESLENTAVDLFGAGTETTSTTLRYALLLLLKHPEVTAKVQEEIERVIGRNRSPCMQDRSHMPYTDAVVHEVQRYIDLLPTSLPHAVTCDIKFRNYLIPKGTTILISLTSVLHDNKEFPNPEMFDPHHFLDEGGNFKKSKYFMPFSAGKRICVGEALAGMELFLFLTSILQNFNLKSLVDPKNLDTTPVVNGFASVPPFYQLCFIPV
CYP2C19, sequence (P33261 whole entry): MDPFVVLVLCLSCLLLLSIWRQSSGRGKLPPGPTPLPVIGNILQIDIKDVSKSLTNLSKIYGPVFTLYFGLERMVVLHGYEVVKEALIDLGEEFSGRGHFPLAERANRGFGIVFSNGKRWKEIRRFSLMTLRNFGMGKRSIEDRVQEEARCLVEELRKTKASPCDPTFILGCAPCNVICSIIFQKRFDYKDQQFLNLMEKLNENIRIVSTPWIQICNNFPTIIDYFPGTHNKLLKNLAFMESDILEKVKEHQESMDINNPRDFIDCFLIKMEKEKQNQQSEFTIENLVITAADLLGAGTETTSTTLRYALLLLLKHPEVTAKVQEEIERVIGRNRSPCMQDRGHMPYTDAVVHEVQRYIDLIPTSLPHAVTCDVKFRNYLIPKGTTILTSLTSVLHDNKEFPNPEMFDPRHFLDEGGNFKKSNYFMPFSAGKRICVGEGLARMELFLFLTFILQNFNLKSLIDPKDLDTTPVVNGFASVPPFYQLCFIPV
T3 sequence (P08684 whole entry): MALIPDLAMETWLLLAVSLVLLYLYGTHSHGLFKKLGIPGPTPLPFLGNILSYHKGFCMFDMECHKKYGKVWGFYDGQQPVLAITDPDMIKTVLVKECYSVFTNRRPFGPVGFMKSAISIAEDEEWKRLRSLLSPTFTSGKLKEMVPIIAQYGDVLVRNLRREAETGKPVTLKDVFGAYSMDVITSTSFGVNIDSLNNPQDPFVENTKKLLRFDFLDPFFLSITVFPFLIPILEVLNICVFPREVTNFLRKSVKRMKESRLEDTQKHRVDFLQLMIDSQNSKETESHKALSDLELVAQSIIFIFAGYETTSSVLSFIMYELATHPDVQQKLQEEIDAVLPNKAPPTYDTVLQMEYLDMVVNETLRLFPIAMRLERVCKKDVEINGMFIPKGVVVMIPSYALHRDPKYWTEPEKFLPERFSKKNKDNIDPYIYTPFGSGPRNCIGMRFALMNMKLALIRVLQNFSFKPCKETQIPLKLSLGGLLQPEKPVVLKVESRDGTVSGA
Experimental for CYP2C9: In brief, the assays were carried out in Costar® black-wall 96-well plates with ultra thin clear bottoms (Corning Inc, Corning, NY, USA) in a kinetic assay mode. […] For each well, 40 µL of solution of test compounds or vehicle was incubated with 50 µL pre-mixture (mixture of BACULOSOMES® reagent, regeneration system and reaction buffer) at 37°C for 20 min. […] The final methanol volume in the reaction was less than or equal to 1%.

On to `CC(C)(O)CCC[C@@](C)(O)[C@H]1CC[C@]2(C)[C@@H]1[C@H](O)C[C@@H]1[C@@]3(C)CC[C@H](O)C(C)(C)[C@@H]3CC[C@]12C` [20(R)-25-OH-PPD, 20(R)-dammarane-3β, 12β, 20, 25-tetrol], for which the IC50 – broadly, the midpoint of a concentration-inhibition curve – is above 100 µM at CYP1A2; 7.6 µM at CYP2C9 (setting [7]); 25.6 µM at CYP3A4 [2]; above 50 µM against CYP2D6; 69.1 µM on CYP2C19. Further, the figures for the inhibition at 30 min, 50 µM at CYP1A2 (setting [6]) and on CYP2D6 (setting [8]) were 22.8% and 31.8%, respectively. Further, the “Effect on in vitro CBZ metabolism” value on CYP3A4 [1] is “substantially activated”. For the same molecule, the “Activation of CYP3A4, Vivid red assay (fold)” value on CYP3A4 [3] (10 µM) is given as “about two-fold”. Moreover, on CYP3A4 [3], the “Effect on CYP3A4 catalytic activity, Vivid red assay” value (shortened to “Effect on CYP3A4 catalytic activity”) is on record as “activated the catalytic activity of CYP3A4”. Also, the “Effect on NF metabolism” value on CYP3A4 [4] is “negligible”.
On to `COC(C)(C)CCC[C@](C)(O)[C@H]1CC[C@]2(C)[C@@H]1[C@H](O)C[C@@H]1[C@@]3(C)CC[C@H](O)C(C)(C)[C@@H]3CC[C@]12C` [25-OCH3-PPD, 20(S)-25-methoxyl-dammarane-3β, 12β, 20-triol], for which the IC50 was above 100 µM at CYP1A2; 7.5 µM at CYP2C9 (setting [7]); 17.7 µM against CYP3A4 [2]; above 50 µM against CYP2D6; 26.5 µM at CYP2C19; above 100 µM at CYP3A4 [3]. Moreover, the inhibition (usually the change of the read-out against control, counted positive when it falls) at 30 min, 50 µM stood at 4.8% at CYP1A2 (setting [6]); 12.6% on CYP2D6 (setting [8]); 25.4% on CYP3A4 [3] (human, recombinant (cDNA-expressed) CYP3A4 BACULOSOMES, probe Vivid red substrate 3 µM). Further, the “Effect on in vitro CBZ metabolism” value on CYP3A4 [1] was “substantially activated”. Moreover, on CYP3A4 [3] (10 µM), the “Activation of CYP3A4, Vivid red assay” value is listed as “about 20%”. The “Effect on CYP3A4, Vivid red assay” value on CYP3A4 [3] (high concentrations) was “weakly inhibited”. Moreover, the “Effect on NF metabolism” value at CYP3A4 [4] was “negligible”.
In the case of `CC(C)=CCC[C@](C)(O)[C@H]1CC[C@]2(C)[C@@H]1[C@H](O)C[C@@H]1[C@@]3(C)CC[C@H](O)C(C)(C)[C@@H]3CC[C@]12C` [PPD, protopanaxadiol], the IC50 on CYP1A2 is 86.6 µM; at CYP2C9 (setting [7]), 8 µM; at CYP3A4 [2], 9.3 µM; against CYP2D6, above 50 µM; on CYP2C19 it was 52.6 µM; on CYP3A4 [3] it was 43.1 µM. At CYP3A4 [1] (10 µM), the “Activation of CBZ metabolism (fold)” value is “about five-fold”. Further, the “Effect on in vitro CBZ metabolism” value on CYP3A4 [1] is recorded as “substantially activated”. Further, the inhibition at 30 min, 50 µM on CYP2D6 (setting [8]) turned out to be 25.9%. In addition, the “Effect on CYP3A4 catalytic activity” value at CYP3A4 [3] was “inhibited CYP3A4 in a dose-dependent manner”. In addition, at CYP3A4 [4], the “Effect on NF in vitro metabolism” value is “weak activation effect”.
For `CC(C)=CCC[C@](C)(O[C@@H]1O[C@H](CO)[C@@H](O)[C@H](O)[C@H]1O)[C@H]1CC[C@]2(C)[C@@H]1[C@H](O)C[C@@H]1[C@@]3(C)CC[C@H](O[C@@H]4O[C@H](CO)[C@@H](O)[C@H](O)[C@H]4O[C@@H]4O[C@H](CO)[C@@H](O)[C@H](O)[C@H]4O)C(C)(C)[C@@H]3CC[C@]12C` [Rd], the IC50 against CYP1A2 was above 100 µM; at CYP2C9 (setting [7]), above 50 µM; at CYP3A4 [2], above 100 µM; against CYP2D6, above 50 µM; against CYP2C19 it was above 100 µM; against CYP3A4 [3] it was 72.7 µM. For the same molecule, in the data set on CYP3A4 [5], the IC50 was 62 µM. Further, the inhibition at 30 min, 50 µM turned out to be 38.3% on CYP1A2 (setting [6]); 34.8% at CYP2C9 (human, recombinant (cDNA-expressed) CYP2C9 BACULOSOMES, probe Vivid red substrate 2 µM); 12.6% on CYP3A4 [2] (human, recombinant (cDNA-expressed) CYP3A4 BACULOSOMES, probe Vivid green substrate 2 µM); 18.1% at CYP2D6 (setting [8]); 27.7% on CYP2C19 (human, recombinant (cDNA-expressed) CYP2C19 BACULOSOMES, probe Vivid blue substrate 10 µM).
With `CC(C)=CCC[C@](C)(O)[C@H]1CC[C@]2(C)[C@@H]1[C@H](O)C[C@@H]1[C@@]3(C)CC[C@H](O[C@@H]4O[C@H](CO)[C@@H](O)[C@H](O)[C@H]4O)C(C)(C)[C@@H]3CC[C@]12C` [Rh2], the IC50 is above 100 µM against CYP1A2; 30.9 µM at CYP2C9; 47 µM at CYP3A4 [2]; above 50 µM against CYP2D6; 49.9 µM against CYP2C19; 9.8 µM against CYP3A4 [3]. Moreover, the inhibition at 30 min, 50 µM against CYP1A2 worked out at 39.4%; on CYP2D6 it was 20.3%. In addition, the “Effect on in vitro CBZ metabolism” value at CYP3A4 [1] is recorded as “did not significantly alter”. Moreover, the “Effect on CYP3A4 catalytic activity” value on CYP3A4 [3] is “inhibited CYP3A4 in a dose-dependent manner”. Moreover, the “Effect on CYP3A4-catalyzed NF oxidation” value on CYP3A4 [4] (high concentration (50 µM)) is “weakly inhibited”. Also, at CYP3A4 [4], the “Effect on NF in vitro metabolism” value is reported as “weak activation effect”.
`O=c1cc(-c2ccccc2)oc2c1ccc1ccccc12` [α-naphthoflavone, reference compound]: the “Increase of CBZ metabolism vs vehicle control” value at CYP3A4 [1] (10 µM) worked out at 772%. Moreover, the “Effect on in vitro NF metabolism” value at CYP3A4 [4] (10 µM) is “did not significantly alter”.
